Numbers after ± are expanded uncertainties.
Tests used:
[1] = cn = amount concentration of the nth substance listed, in mol/dm3; settings: 100 kPa, Liquid, Alternating current cell with electrodes, c1 = 0.1
[2] = 101.33 kPa, Liquid; for viscosity: Falling or rolling sphere viscometry; for mass density: Vibrating tube method
[3] = refractive index (Na D-line) (dimensionless); settings: 101.33 kPa, Liquid, Standard Abbe refractometry

[Cl-].[K+] [potassium chloride] + O
electrical conductivity ([1]; 288.15 K): 1.05 ± 0.1 S/m
electrical conductivity ([1]; 293.15 K): 1.16 ± 0.1 S/m
electrical conductivity ([1]; 295.15 K): 1.21 ± 0.1 S/m
electrical conductivity ([1]; 297.15 K): 1.26 ± 0.1 S/m
electrical conductivity ([1]; 298.15 K): 1.29 ± 0.1 S/m
electrical conductivity ([1]; 299.15 K): 1.31 ± 0.1 S/m
electrical conductivity ([1]; 301.15 K): 1.36 ± 0.1 S/m
electrical conductivity ([1]; 303.15 K): 1.41 ± 0.1 S/m
electrical conductivity ([1]; 308.15 K): 1.54 ± 0.1 S/m
electrical conductivity ([1]; 313.15 K): 1.67 ± 0.1 S/m
electrical conductivity ([1]; 318.15 K): 1.8 ± 0.1 S/m
electrical conductivity ([1]; 323.15 K): 1.91 ± 0.1 S/m

O [water]
viscosity ([2]; 303.15 K): 0.798 ± 0.04 mPa·s
viscosity ([2]; 308.15 K): 0.719 ± 0.04 mPa·s
viscosity ([2]; 313.15 K): 0.654 ± 0.04 mPa·s
mass density ([2]; 313.15 K): 992.3 ± 1 kg/m3
viscosity ([2]; 318.15 K): 0.595 ± 0.04 mPa·s
mass density ([2]; 318.15 K): 990.3 ± 1 kg/m3
viscosity ([2]; 323.15 K): 0.546 ± 0.04 mPa·s
mass density ([2]; 323.15 K): 988.2 ± 1 kg/m3
viscosity ([2]; 328.15 K): 0.506 ± 0.04 mPa·s
mass density ([2]; 328.15 K): 985.9 ± 1 kg/m3
viscosity ([2]; 333.15 K): 0.466 ± 0.04 mPa·s
mass density ([2]; 333.15 K): 983.4 ± 1 kg/m3
viscosity ([2]; 338.15 K): 0.435 ± 0.04 mPa·s
mass density ([2]; 338.15 K): 980.8 ± 1 kg/m3
viscosity ([2]; 343.15 K): 0.408 ± 0.04 mPa·s
mass density ([2]; 343.15 K): 978 ± 1 kg/m3
refractive index ([3]; 298.15 K): 1.33247 ± 0.00031
refractive index ([3]; 303.15 K): 1.33188 ± 0.00031
refractive index ([3]; 308.15 K): 1.33124 ± 0.00031
refractive index ([3]; 313.15 K): 1.33053 ± 0.00031
refractive index ([3]; 318.15 K): 1.32974 ± 0.00031
refractive index ([3]; 323.15 K): 1.3289 ± 0.00031
refractive index ([3]; 328.15 K): 1.32799 ± 0.00031
refractive index ([3]; 333.15 K): 1.32704 ± 0.00031
refractive index ([3]; 338.15 K): 1.32605 ± 0.00031
refractive index ([3]; 343.15 K): 1.32503 ± 0.00031

From the NIST ThermoML archive (doi:10.1016/j.jct.2014.05.019)
